Laboratory results published in patent US10827753B2, “Compositions and methods for controlling nematodes” (Monsanto Technology LLC, priority 2007, dated 2020).
Marks after values point to notes of the source that are not given here.

Key:
[1] = tested on: Meloidogyne incognita (RKN); test: Seed treatment test of root knot nematode on cucumber plants; format: in vivo
Method: (§1) For a given concentration the chemical is dissolved in 500 ul of acetone and one gram of cucumber seed (RKN test) or soybean seed (SCN test) is added (e.g., 20 mg active ingredient in 500 ul acetone plus 1 gram of seed). The seed solutions are agitated until all seeds were thoroughly covered with the chemical solution. The acetone is then allowed to evaporate by air drying the seeds. The seeds are planted in 2-inch pots containing sandy soil and then the pots are inoculated with 1000 Meloidogyne incognita (RKN) or 1000 Heterodera glycines (SCN) eggs per pot three days after planting. Plants are rated for galling 14 days after egg inoculation for RKN or 28 days after egg inoculation for SCN.

[2] = tested on: CD-1/Swiss derived albino mice; format: in vivo; details: 500 mg/kg oral, three female mice, observed up to 14 days
Method: Acute oral toxicity testing was performed in mice in accordance with test method P203.UDP, as administered by Eurofins/Product Safety Laboratories (Dayton, N.J.). CD-1/Swiss derived albino mice were obtained and group housed in suspended solid bottom caging. The mice were fed rodent chow and filtered tap water was supplied ad libitum. Following acclimation to the laboratory setting, a group of animals was fasted overnight by removing food from the cages. After the fasting period, three female mice were selected based on vitality and initial body weights. The individual compound doses were calculated from these body weights.
The test substance was prepared as a 1% (50 mg/kg) or 5% (500 mg/kg) weight to weight (w/w) mixture in a 0.5% w/w solution of carboxymethylcellulose (CMC) in distilled water. A tissue homogenizer was used to create a homogeneous mixture. A dose of 50 or 500 mg/kg was administered to three healthy mice per dose level by oral intubation using a ball-tipped gavage needle attached to a syringe. After administration, the animals were returned to their cages, and feed was replaced immediately after dosing.
Body weights were recorded prior to initiation and on Days 7 and 14 or a soon as possible after death.

Meloidogyne incognita = test: M. incognita miniaturized greenhouse assay on cucumber seedlings (root galling); format: in vivo; details: 8 ppm; average of triplicate gall rating, scale 0-3 (% root mass galled)
Summary of the method: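 Compound in acetone/Triton X100 stock (5 mg/mL) diluted into water with 0.015% Triton X100 and applied to sand-planted sprouted cucumber seedlings; inoculated with 500 M. incognita eggs two days after planting. Roots harvested 10–12 days later; galling scored 0–3 by % root mass galled, averaged over triplicates, plus visual root phytotoxicity rating.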

[3] = tested on: sting (Belonolaimus longicaudatus) nematodes; test: Sting nematode bench top soil assay; format: in vivo
Method: Populations of sting (Belonolaimus longicaudatus) nematodes are maintained on St. Augustine turf grass on soil in 15-cm pots. At test initiation the turf is removed from the pots and the soil containing nematode eggs, juveniles, and adults is subdivided into pots each containing a volume of 125 cm^3′ The compounds to be tested are dissolved in 3 ml of acetone using 3, 6, or 15 mg to achieve equivalent surface area application rates of 2, 4, or 10 kg/ha, respectively. The 3 ml acetone stock solution is added to 30 ml of water, and 5 ml of that solution is used to drench each of 6 replicate test pots prepared as described above. The treated pots containing nematodes are incubated in the laboratory at ambient temperature of approximately 25° C. After 3 days the soil from each pot is washed onto a modified Baermann apparatus comprised of a screen supporting a layer of filter paper on which the soil sample is placed and set in a dish of water. The samples are then incubated at 25° C. for 24 hours to allow the live nematodes to migrate through the paper and screen and into a water reservoir to be collected for counting with a light microscope. Nematodes that have been killed or immobilized by the test compounds are not able to migrate into the reservoir.

[4] = tested on: Heterodera glycines (SCN); test: Seed treatment test of soybean cyst nematode on soybean plants; format: in vivo; details: test a
Method: as §1

mice = details: cited from earlier work

Fc1ccc(-c2cnc(-c3cccs3)o2)cc1 [compound 4775]
percent control (galling reduction) relative to the control blank treatment ([1]; 20 mg ai/gram seed, cucumber seeds): 77%
mortality, signs of gross toxicity and behavioral changes [2]: all animals survived, gained body weight, and appeared active and healthy
8 ppm gall ratings (Meloidogyne incognita): 0 (0=0-5%)
Number of nematodes recovered from treated soil after 3 days incubation with the compound ([3]; 2 kg/ha): 15
Number of nematodes recovered from treated soil after 3 days incubation with the compound ([3]; 4 kg/ha): 7
Number of nematodes recovered from treated soil after 3 days incubation with the compound ([3]; 10 kg/ha): 4

abamectin
percent cyst reduction relative to control blank treatment ([4]; 0.375 mg al/gram seed): −14^a percent
percent cyst reduction relative to control blank treatment ([4]; 1.5 mg al/gram seed): −24^a percent
oral LD50 in mice (mice): 13.6 mg/kg
percent control (galling reduction) relative to the control blank treatment ([1]; 10 mg ai/gram seed, cucumber seeds (positive control)): 84%
